Laboratory results reported in paper PMC7737769, “Pharmacological inhibition of syntenin PDZ2 domain impairs breast cancer cell activities and exosome loading with syndecan and EpCAM cargo” (Journal of Extracellular Vesicles, 2020).
Entries after “also recorded” stand apart in the source; their conditions may differ. Like-named read-outs stand apart in the source and are kept apart here.

Assays:
[1] = tested on: T1, Erbin‐P0071 complex; test: HTRF assay, Erbin-P0071 interaction; type: biochemical, human
T1 construct: human Erbin PDZ domain; made in house; host or cells: E. coli BL21 (DE3)
Procedure: (§1) HTRF assays were performed in white 96Well Small VolumeHiBase Polystyrene Microplates (Greiner) with a total working volume of […], as described previously (Milhas et al., 2016). Briefly, compounds were firstly dispensed into the wells at 400 µM for the primary screen or with serial DMSO dilutions for IC50 measurement assays. Primary screening assays have been performed in monoplicate while IC50 measurements were performed in triplicates. All HTRF reagents were purchased from CisBio Bioassays and reconstituted according to the supplier protocols. The plates were spun for 3 min at 500 × g and then incubated at 4°C for 16 h. The HTRF signals were recorded on a POLAR star Omega plate reader (BMG Labtech) with an excitation filter at 337 nm and fluorescence wavelength measurement at 620 and 665 nm, an integration delay of 60 µs and an integration time of 400 µs. Results were analysed with a two‐wavelength signal ratio: [intensity (665 nm)/intensity (620 nm)] × 10^4. Percentage of inhibition was calculated using the following equation: % inhibition = [(compound signal)–(min signal)]/[(max signal)–(min signal)] × 100, where ‘max signal’ is the signal ratio with the compound vehicle alone (DMSO) and ‘min signal’ the signal ratio without protein B. For IC50 measurements, values were normalized and fitted with Prism (GraphPad software) using the following equation: Y = 100/(1+((X/ IC50)ˆHill slope)).
(§2) The search strategy for PDZ2 syntenin inhibitors was based on the PDZ targeted library developed from Enamine compound collection. The PDZ targeted library was developed to cover virtually all PDZ domains. Consequently, to create the syntenin PDZ2 focused library we used two independent paths: docking of the PDZ targeted library against structures of syntenin PDZ2 available in Protein Data Bank and a random selection from the PDZ targeted library. The docking has produced 21 virtual hits, which were added to 118 randomly selected compounds (10% of the pan PDZ library). The resultant set of 139 compounds, syntenin PDZ library was subjected to experimental validation. The primary screen was performed at 400µM using a previously validated Homogeneous Time Resolved Fluorescence (HTRF) assay (Milhas et al., 2016). HTRF is based on Fluorescence Resonance Energy Transfer (FRET) between two fluorescent reagents. In the present case, Anti‐GST‐Terbium antibody and streptavidin‐bound Dynamic2 were used as donor and acceptor respectively. Interactions between GST PDZ‐fusion proteins and biotinylated peptides containing PDZ binding motifs were challenged with the potential inhibitors. In parallel, control experiments were performed with a biotinylated‐GST to verify that compounds were not interfering with the FRET signal in a non‐specific manner. To identify inhibitors of syntenin PDZ interactions, we tested for the effect of the 139 compounds on syntenin‐SDC2 and syntenin‐Frizzled7 complexes (Figure 1a; Table S1). When the HTRF signal dropped below 0.9, inhibition was considered as effective. […] Noteworthy, these compounds had no effect on other PDZ complexes like GRASP55‐JAM‐B or GRASP55‐JAM‐C and Erbin‐Erbb2 or Erbin‐P0071 (Figure 1c).

[2] = biological target: T2, syntenin‐PDZ tandem plus C‐terminal domain (Homo sapiens, UniProt O00560); test: Surface plasmon resonance (BIAcore), syntenin PDZ tandem plus C-terminal domain; type: binding
T2 construct: made in house; host or cells: Biotin XCell F' E. coli cells
T2 sequence (O00560 107-298): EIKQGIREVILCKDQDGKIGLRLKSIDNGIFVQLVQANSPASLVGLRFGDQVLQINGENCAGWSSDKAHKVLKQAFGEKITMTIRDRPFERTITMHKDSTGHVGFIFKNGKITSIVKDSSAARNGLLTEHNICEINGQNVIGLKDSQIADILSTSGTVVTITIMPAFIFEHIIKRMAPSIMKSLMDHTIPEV
Procedure: All SPR experiments were conducted with a BIAcore T200 instrument (GE Healthcare), at 25°C. A total of 8000 resonance units (RU) of biotinylated ligands (N‐terminal 6xHis tagged biotinylated syntenin tandem, syntenin tandem with C terminus, GRASP55 tandem or GST as control) were immobilized on a streptavidin‐sensor chip (GE Healthcare). Analytes (C58 and SyntOFF compounds) were perfused at 30 µl per min in running buffer (10 mM HEPES pH 7.4, 150 mM NaCl, 0.005% Tween20) at different concentrations. The reference channel was N‐terminal 6xHis tagged biotinylated GST protein. The injection time was 240 s, long enough for the sensorgrams to reach equilibrium, and the dissociation time was 240 s. To carry out these SPR experiments, we employed the method known as ‘single‐cycle kinetics’ described in 2006 by Karlsson and co‐workers (Karlsson, Katsamba, Nordin, Pol, & Myszka, 2006). It consists in injecting the analyte at increasing concentrations, without regeneration steps between each sample injection to avoid that folded‐proteins can be damaged after regeneration steps. Equilibrium dissociation constants (KD) were calculated by fitting the data to a simple Langmuir binding isotherm using GraphPad Prism. For determination of the apparent KD, signals obtained at equilibrium were plotted as a function of compound concentration. […]

[3] = tested on: MCF‐7 cells; test: Cancer cell viability (Annexin V/7-AAD flow cytometry), MCF-7; type: cell-based; conditions: MCF-7, concentrations up to 100 µM, 48 h
Procedure: The effects of the compounds C58 and SyntOFF were tested both on MCF‐7 and MCF‐7 SyntKO cells. Briefly, the cells were treated with increasing concentrations of the compounds for 48 h and early/late apoptosis was measured by using the FITC Annexin V apoptosis detection kit with 7‐AAD (Biolegend, San Diego, CA, USA) according to the manufacturer. Annexin V positive but 7‐AAD negative (early apoptotic cells) and Annexin V positive and 7‐AAD positive (late stage apoptosis) was determined by using FACS LSRII flow cytometer (BD Biosciences) and data were analysed with Flowjo software (Tree Star).

[4] = tested on: MCF‐7 SyntKO cells; test: Wound-healing (migration) assay, MCF-7 SyntKO; type: cell-based; conditions: 100 µM, 24 h
Procedure: For migration assays, cells were treated with 1 ng/ml of mitomycin (Sigma M4287) overnight to inhibit cell division. Treated cells were plated in Ibidi culture‐inserts (Ibidi Cat‐80206) for 12 h to reach 90%–95% of confluence with or without compounds (100 µM). A wound was created by removing inserts from the dishes. Medium with or without compounds (100 µM) was refreshed to remove dead cells and the cells were observed under an inverted light microscope (Leica SP2) equipped with a camera. Images were taken by MetaMorph software every 10 min for 24 h. Measurements of cell velocity were calculated using the MetaMorph software.

[5] = tested on: biotinylated‐GST; test: HTRF control with biotinylated-GST (non-specific interference with FRET signal)
Procedure: as §1, §2

| SMILES | GST-Erbin P0071 (signal ratio) ([1]; 400µM compound, Figure 1c) | Kd ([2]; compound in PBS, read-out: apparent KD, syntenin‐PDZ tandem plus C‐terminal domain) | toxicity (cell viability) [3] | cell migration (wound closure) [4] | GST-biot (signal ratio) ([5]; 400µM compound, Figure 1c) | effect on control (biotinylated‐GST) FRET signals ([5]; HTRF primary screen, 400µM) | HTRF ASSAY GST-biot (HTRF signal ratio, control) ([5]; primary screen, 400 µM compound, Table S1) | effect on Erbin‐P0071 complex ([1]; HTRF dose-response, Figure S2a) | Kd ([2]; DMSO as vehicle, read-out: KD, syntenin‐PDZ tandem plus C‐terminal domain) |
| --- | --- | --- | --- | --- | --- | --- | --- | --- | --- |
| CC(C)[C@H](NC(=O)CSc1ccc(Cl)cc1)C(=O)O [Compound C58] | 1 | 886 µM | not toxic; also recorded: non‐toxic | no such effect | 0.92 | no significant effect | 1.01 | – | – |
| CC(C)[C@H](NC(=O)CCSc1ccc(Cl)cc1)C(=O)O [SyntOFF, (S)‐2‐(3‐(4‐chlorophenylthio)propanamido)‐3‐methylbutanoic acid] | – | – | non‐toxic | – | – | – | – | not affecting | 130 µM |
